ChEMBL document CHEMBL1909046, “DrugMatrix in vitro pharmacology data”

Experiments:
Glycine receptor = Glycine receptor (Rattus norvegicus, UniProt P22771+P24524+P07727+P20781); assay type: cell membranes, Wistar, Spinal cord, Membrane; note: in other assays of this panel Not Active means under 50% inhibition at 10 µM
[1] = biological target: Beta-1 adrenergic receptor (Homo sapiens, UniProt P08588); assay: DRUGMATRIX: Adrenergic beta1 radioligand binding (ligand: [125I] Cyanopindolol); assay type: cell membranes, CHO-K1, Membrane; conditions: cho-k1; Not Active = under 50% inhibition at 10 µM
Cytochrome P450 2A6 = biological target: T1, Cytochrome P450 2A6 (Homo sapiens, UniProt P11509); conditions: bti-tn-5b1-4; note: in other assays of this panel Not Active means under 50% inhibition at 10 µM
T1 sequence (P11509 whole entry): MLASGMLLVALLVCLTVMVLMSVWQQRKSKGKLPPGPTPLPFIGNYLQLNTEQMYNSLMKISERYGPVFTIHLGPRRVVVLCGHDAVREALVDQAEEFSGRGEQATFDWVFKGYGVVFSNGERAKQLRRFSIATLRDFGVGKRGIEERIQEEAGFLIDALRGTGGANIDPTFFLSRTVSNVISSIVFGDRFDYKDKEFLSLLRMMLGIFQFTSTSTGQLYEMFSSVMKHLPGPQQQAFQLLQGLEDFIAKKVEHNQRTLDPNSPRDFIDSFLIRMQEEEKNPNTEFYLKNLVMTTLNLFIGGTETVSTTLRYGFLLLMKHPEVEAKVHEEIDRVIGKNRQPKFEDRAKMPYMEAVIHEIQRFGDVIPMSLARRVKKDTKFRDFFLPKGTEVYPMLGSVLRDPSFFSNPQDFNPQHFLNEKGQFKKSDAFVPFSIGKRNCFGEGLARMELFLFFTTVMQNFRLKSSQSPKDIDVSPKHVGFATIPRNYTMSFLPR

[2] = DRUGMATRIX: Atrial Natriuretic Factor (ANF) radioligand binding (ligand: [125I] ANF (rat)); assay type: cell membranes, Cavia porcellus, Dunkin-Hartley, Adrenal gland, Membrane; conditions: Not Active = under 50% inhibition at 10 µM
[3] = biological target: T2, Alpha-2A adrenergic receptor (Homo sapiens, UniProt P08913); assay type: cell membranes, Sf9, Membrane; conditions: for Ki: read-out: Ki; for all read-outs here: in other assays of this panel Not Active means under 50% inhibition at 10 µM
T2 sequence (P08913 whole entry): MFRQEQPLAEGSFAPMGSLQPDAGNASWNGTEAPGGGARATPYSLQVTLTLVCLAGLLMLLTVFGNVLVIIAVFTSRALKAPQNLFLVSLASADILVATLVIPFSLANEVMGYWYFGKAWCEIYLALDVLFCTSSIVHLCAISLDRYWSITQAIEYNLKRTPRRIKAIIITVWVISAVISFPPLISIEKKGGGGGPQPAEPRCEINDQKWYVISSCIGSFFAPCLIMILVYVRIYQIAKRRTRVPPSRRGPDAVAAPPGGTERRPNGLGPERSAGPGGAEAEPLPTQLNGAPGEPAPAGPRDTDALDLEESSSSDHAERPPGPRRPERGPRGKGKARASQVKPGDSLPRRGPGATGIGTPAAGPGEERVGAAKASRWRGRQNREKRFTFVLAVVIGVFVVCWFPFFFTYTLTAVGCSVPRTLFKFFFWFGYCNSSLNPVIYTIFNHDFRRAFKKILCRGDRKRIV

[4] = DRUGMATRIX: Imidazoline I2, Central radioligand binding (ligand: [3H] Idazoxan); assay type: cell membranes, Rattus norvegicus, Wistar, Cerebral cortex, Membrane; conditions: Not Active = under 50% inhibition at 10 µM

Beta-1 adrenergic receptor, sequence (P08588 whole entry): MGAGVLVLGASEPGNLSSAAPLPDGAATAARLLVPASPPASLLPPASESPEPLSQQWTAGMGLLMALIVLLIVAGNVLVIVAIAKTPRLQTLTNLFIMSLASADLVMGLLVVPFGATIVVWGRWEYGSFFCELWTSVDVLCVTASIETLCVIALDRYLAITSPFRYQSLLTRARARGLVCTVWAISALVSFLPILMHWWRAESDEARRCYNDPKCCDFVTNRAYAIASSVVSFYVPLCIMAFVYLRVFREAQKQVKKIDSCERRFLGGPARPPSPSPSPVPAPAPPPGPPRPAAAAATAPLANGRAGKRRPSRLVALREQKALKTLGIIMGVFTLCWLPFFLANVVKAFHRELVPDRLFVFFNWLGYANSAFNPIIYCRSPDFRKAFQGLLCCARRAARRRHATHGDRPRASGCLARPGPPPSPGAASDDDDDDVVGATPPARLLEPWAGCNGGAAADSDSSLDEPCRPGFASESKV

Compound	IC50 (Glycine receptor)	IC50 [1]	IC50 (Cytochrome P450 2A6)	Ki (Cytochrome P450 2A6)	IC50 [2]	Ki [2]	IC50 ([3]; sf9)	IC50 [4]	Ki [4]	IC50 ([3]; read-out: IC50)	Ki [3]	IC50 ([4]; read-out: IC50)	Ki ([4]; read-out: Ki)
CCOc1nc2cccc(C(=O)O)c2n1Cc1ccc(-c2ccccc2-c2nnn[nH]2)cc1	Not Active	Not Active	Not Active	Not Active	Not Active	Not Active	Not Active	Not Active	Not Active	–	–	–	–
O=C(O)CCCc1cccs1	Not Active	Not Active	Not Active	Not Active	Not Active	Not Active	Not Active	Not Active	Not Active	–	–	–	–
COc1ccccc1N	Not Active	Not Active	Not Active	Not Active	Not Active	Not Active	Not Active	Not Active	Not Active	–	–	–	–
O=C(c1ccccc1F)N1CCC(Cc2ccccc2)CC1	Not Active	Not Active	Not Active	Not Active	Not Active	Not Active	Not Active	Not Active	Not Active	–	–	–	–
Cc1c(O)cccc1C(=O)N[C@@H](CSc1ccccc1)[C@H](O)CN1C[C@H]2CCCC[C@H]2C[C@H]1C(=O)NC(C)(C)C	Not Active	–	Not Active	Not Active	Not Active	Not Active	Not Active	Not Active	Not Active	–	–	–	–
CC(O)COC[C@H]1O[C@@H]2O[C@H]3[C@H](O)[C@@H](O)[C@@H](O[C@H]4[C@H](O)[C@@H](O)[C@@H](O[C@H]5[C@H](O)[C@@H](O)[C@@H](O[C@H]6[C@H](O)[C@@H](O)[C@@H](O[C@H]7[C@H](O)[C@@H](O)[C@@H](O[C@H]8[C@H](O)[C@@H](O)[C@@H](O[C@H]1[C@H](O)[C@H]2O)O[C@@H]8COCC(C)O)O[C@@H]7COCC(C)O)O[C@@H]6COCC(C)O)O[C@@H]5COCC(C)O)O[C@@H]4COCC(C)O)O[C@@H]3COCC(C)O (stereo partly drawn) [2-HYDROXYPROPYL-BETA-CYCLODEXTRIN]	Not Active	Not Active	Not Active	Not Active	Not Active	Not Active	Not Active	Not Active	Not Active	–	–	–	–
NC(=O)c1cccc(N)c1 [3-AMINOBENZAMIDE]	Not Active	Not Active	Not Active	Not Active	Not Active	Not Active	Not Active	Not Active	Not Active	–	–	–	–
C[C@H]1O[C@H](O[C@H]2[C@H](O)[C@@H](O)[C@@H](O[C@H]3[C@H](O)[C@@H](O)C(O)O[C@@H]3CO)O[C@@H]2CO)[C@H](O)[C@@H](O)[C@@H]1N[C@H]1C=C(CO)[C@@H](O)[C@H](O)[C@H]1O (some centres not stated) [ACARBOSE]	Not Active	Not Active	Not Active	Not Active	Not Active	Not Active	Not Active	Not Active	Not Active	–	–	–	–
CC[C@H]1[C@@H]2C[C@H]3[C@@H]4N(C)c5ccccc5[C@]45C[C@@H]([C@@H]2[C@H]5O)N3[C@@H]1O [AJMALINE]	Not Active	Not Active	Not Active	Not Active	Not Active	Not Active	Not Active	Not Active	Not Active	–	–	–	–
NC12CC3CC(CC(C3)C1)C2 [AMANTADINE]	Not Active	Not Active	–	–	Not Active	Not Active	Not Active	Not Active	Not Active	–	–	–	–
NCCCNCCSP(=O)(O)O [AMIFOSTINE]	Not Active	Not Active	Not Active	Not Active	Not Active	Not Active	Not Active	Not Active	Not Active	–	–	–	–
CN(C)CCC=C1c2ccccc2CCc2ccccc21 [AMITRIPTYLINE]	Not Active	Not Active	Not Active	Not Active	Not Active	Not Active	–	–	–	351 nM	132 nM	1680 nM	1120 nM
CC(=O)Oc1ccccc1C(=O)O [ASPIRIN]	Not Active	Not Active	Not Active	Not Active	Not Active	Not Active	Not Active	Not Active	Not Active	–	–	–	–
CC(C)c1c(C(=O)Nc2ccccc2)c(-c2ccccc2)c(-c2ccc(F)cc2)n1CC[C@@H](O)C[C@@H](O)CC(=O)O [ATORVASTATIN]	Not Active	Not Active	Not Active	Not Active	Not Active	Not Active	Not Active	Not Active	Not Active	–	–	–	–
CC(=O)OC[C@H]1O[C@@H](n2ncc(=O)[nH]c2=O)[C@H](OC(C)=O)[C@@H]1OC(C)=O [AZARIBINE]	Not Active	Not Active	Not Active	Not Active	Not Active	Not Active	Not Active	Not Active	Not Active	–	–	–	–
C[C@H]1[C@H](NC(=O)/C(=N\OC(C)(C)C(=O)O)c2csc(N)n2)C(=O)N1S(=O)(=O)O [AZTREONAM]	Not Active	Not Active	Not Active	Not Active	Not Active	Not Active	Not Active	Not Active	Not Active	–	–	–	–
O=C(O)CCNC(=O)c1ccc(/N=N/c2ccc(O)c(C(=O)O)c2)cc1 [BALSALAZIDE]	Not Active	Not Active	Not Active	Not Active	Not Active	Not Active	Not Active	Not Active	Not Active	–	–	–	–
COc1cc(OC)c(C(=O)CCCN2CCCC2)c(OC)c1 [BUFLOMEDIL]	Not Active	Not Active	Not Active	Not Active	Not Active	Not Active	Not Active	Not Active	Not Active	–	–	–	–
Cn1c(=O)c2c(ncn2C)n(C)c1=O [CAFFEINE]	Not Active	Not Active	Not Active	Not Active	Not Active	Not Active	Not Active	Not Active	Not Active	–	–	–	–
O=C(O)CC(O)(CC(=O)O)C(=O)O [CITRIC ACID]	Not Active	–	Not Active	Not Active	Not Active	Not Active	Not Active	Not Active	Not Active	–	–	–	–
CC(=O)OCC(=O)[C@@]12OC(C)(C)O[C@@H]1C[C@H]1[C@@H]3C[C@H](F)C4=CC(=O)C=C[C@]4(C)[C@@]3(F)[C@@H](O)C[C@@]12C [FLUOCINONIDE]	Not Active	Not Active	–	–	Not Active	Not Active	Not Active	Not Active	Not Active	–	–	–	–
CN1CCC(=C2c3ccccc3CC(=O)c3sccc32)CC1 [KETOTIFEN]	Not Active	–	Not Active	Not Active	Not Active	Not Active	–	Not Active	Not Active	2190 nM	820 nM	–	–
N[C@@H](Cn1ccc(=O)c(O)c1)C(=O)O [L-MIMOSINE]	Not Active	Not Active	–	–	Not Active	Not Active	Not Active	Not Active	Not Active	–	–	–	–
C[C@@H]1C/C=C/C=C/C=C/C=C/[C@H](O[C@@H]2O[C@H](C)[C@@H](O)[C@H](N)[C@@H]2O)C[C@@H]2O[C@](O)(C[C@@H](O)C[C@H]3O[C@@H]3/C=C/C(=O)O1)C[C@H](O)[C@H]2C(=O)O [NATAMYCIN]	Not Active	Not Active	–	–	Not Active	Not Active	Not Active	Not Active	Not Active	–	–	–	–
